Assay results as given in ChEMBL document CHEMBL5370621, “Design, Synthesis, and Biological Evaluation of Novel Thioureidobenzamide (TBA) Derivatives as HBV Capsid Assembly Modulators” (J Med Chem, 2023).

What was measured:
[1] = Selectivity index, ratio of CC50 for cytotoxicity against human HePAD38 cells to EC50 for antiviral activity against Hepatitis B virus infected in human HePAD38 cells; assay type: toxicity, cell-based; conditions: read-out: Ratio CC50/EC50
[2] = Cytotoxicity against human HePAD38 cells assessed as reduction in cell viability incubated for 72 hrs by CCK8 assay; assay type: toxicity, cell-based
[3] = tested on: Hepatitis B virus; assay: Antiviral activity against Hepatitis B virus infected in human HePAD38 cells assessed as inhibition of viral DNA replication by qPCR analysis; assay type: functional, organism-based

Row | Structure (SMILES) | selectivity ratio [1] | CC50 at 72 h [2] [µM] | EC50 [3] [µM]
1 | Cc1cc(NC(=O)c2cc(NC(=O)C3CCCCC3)c(F)cc2Br)ccc1F | 15.3 | 20.7 | 1.35
2 | COc1ccc(CNC(=O)Nc2cc(C(=O)Nc3ccc(F)c(C)c3)c(Br)cc2F)cc1 | 56.1 | 4.88 | 0.087
3 | Cc1cc(NC(=O)c2cc(NC(=O)NCc3cccnc3)c(F)cc2Br)ccc1F | > 200 | > 100 | 0.5
4 | Cc1cc(NC(=O)c2cc(NC(=O)C(=O)NC3CCCC3)c(F)cc2Br)ccc1F | < 0.87 | 17.4 | > 20
5 | Cc1cc(NC(=O)c2cc(NC(=O)NC3CCCC3)c(F)cc2Br)ccc1F | 0.96 | 5.52 | 5.77
6 | Cc1cc(NC(=O)c2cc(S(=O)(=O)N[C@H]3CCOC3)c(F)cc2Br)ccc1F | > 164 | > 100 | 0.61
7 | Cc1cc(NC(=O)c2cc(NC(=S)NCc3cc(F)cc(F)c3)c(F)cc2Br)ccc1F | 16.4 | 3.61 | 0.22
8 | C/C=C/C(=O)Nc1cc(C(=O)Nc2ccc(F)c(C)c2)c(Br)cc1F | 14.4 | 28.5 | 1.98
9 | Cc1cc(NC(=O)c2cc(NC(=O)C3CC3)c(F)cc2Br)ccc1F | 155 | 84 | 0.54
10 | Cc1cc(NC(=O)c2cc(NC(=O)c3ccc(Br)cc3)c(F)cc2Br)ccc1F | 12.6 | 2.4 | 0.19
11 | Cc1cc(CNC(=S)Nc2cc(C(=O)Nc3ccc(F)c(C)c3)c(Br)cc2F)ccc1F | 37.1 | 3.71 | 0.1
12 | C=C1[C@H](CO)[C@@H](O)C[C@@H]1n1cnc2c(=O)[nH]c(N)nc21 [ENTECAVIR ANHYDROUS] | 3780 | 79.3 | 0.021
13 | O=C(Nc1ccc(F)c(C(F)(F)F)c1)c1cc(S(=O)(=O)N[C@H]2CCOC2)c(F)cc1Br | > 19.8 | > 100 | 5.06
14 | Cc1cc(NC(=O)c2cc(S(=O)(=O)NC3CCCC3)c(F)cc2Br)ccc1F | > 227 | > 100 | 0.44
15 | Cc1cc(NC(=O)c2cc(NC(=O)C3CCC3)c(F)cc2Br)ccc1F | 23 | 79.6 | 3.46
16 | Nc1ccn([C@@H]2CS[C@H](CO)O2)c(=O)n1 [LAMIVUDINE] | > 25.1 | > 100 | 3.98
17 | Cc1cc(NC(=O)c2cc(NC(=O)NCc3cc(F)cc(F)c3)c(F)cc2Br)ccc1F | 20.7 | 3.72 | 0.18
18 | Cc1cc(NC(=O)c2cc(NC(=O)NC(C)C)c(F)cc2Br)ccc1F | 16.6 | 19.1 | 1.15
19 | O=C(Nc1cc(F)c(F)c(F)c1)c1cc(S(=O)(=O)NC2CCCC2)c(F)cc1Br | 313 | 34.5 | 0.11
20 | O=C(Nc1cc(F)c(F)c(F)c1)c1cc(S(=O)(=O)N2CCC(O)CC2)c(F)cc1Br | 1.98 | 3.41 | 1.72
21 | Cc1cc(NC(=O)c2cc(NC(=S)NC(C)C(F)(F)F)c(F)cc2Br)ccc1F (centres undefined) | 710 | 17.1 | 0.024
22 | Cc1cc(NC(=O)c2cc(NC(=O)NCc3ccc(O)cc3)c(F)cc2Br)ccc1F | 16.6 | 1.99 | 0.12
23 | Cc1cc(NC(=O)c2cc(NC(=O)c3cccs3)c(F)cc2Br)ccc1F | 129 | 85.1 | 0.66

Row | Structure (SMILES) | selectivity ratio [1] | CC50 at 72 h [2] [µM] | EC50 [3] [µM]
24 | Cc1cc(CNC(=O)Nc2cc(C(=O)Nc3ccc(F)c(C)c3)c(Br)cc2F)ccc1F | 10.2 | 3.28 | 0.32
25 | CCCc1ccc(C(=O)Nc2cc(C(=O)Nc3ccc(F)c(C)c3)c(Br)cc2F)cc1 | 55.1 | 32 | 0.58
26 | CCC(CC)NC(=O)Nc1cc(C(=O)Nc2ccc(F)c(C)c2)c(Br)cc1F | 18.2 | 18.1 | 0.99
27 | O=C(Nc1ccc(F)cc1)c1cc(S(=O)(=O)NC2CCCC2)c(F)cc1Br | 74.4 | 58 | 0.78
28 | Cc1cc(NC(=O)c2cc(NC(=O)C3CCCC3)c(F)cc2Br)ccc1F | > 93.5 | > 100 | 1.07
29 | N#Cc1cc(NC(=O)c2cc(S(=O)(=O)NC3CCCC3)c(F)cc2Br)ccc1F | 13.3 | 19.3 | 1.45
30 | COCCC(=O)Nc1cc(C(=O)Nc2ccc(F)c(C)c2)c(Br)cc1F | 27.4 | 97.4 | 3.55
31 | Cc1cc(NC(=O)c2cc(NC(=O)NC3CCC(O)CC3)c(F)cc2Br)ccc1F (centres undefined) | > 13.6 | > 100 | 7.33
32 | CCN(CC)S(=O)(=O)c1cc(C(=O)Nc2cc(F)c(F)c(F)c2)c(Br)cc1F | 9.72 | 4.47 | 0.46
33 | Cc1cc(NC(=O)c2cc(NC(=O)NCc3ccc(F)cc3)c(F)cc2Br)ccc1F | 54.4 | 18.5 | 0.34
34 | O=C(Nc1ccc(F)c(C(F)(F)F)c1)c1cc(S(=O)(=O)NC2CCCC2)c(F)cc1Br | – | > 100 | > 20
35 | Cc1cc(NC(=O)c2cc(NC(=O)c3ccc(C#N)cc3)c(F)cc2Br)ccc1F | 572 | 85.7 | 0.15
36 | Cc1cc(NC(=O)c2cc(NC(=O)Nc3cc(F)c(F)c(F)c3)c(F)cc2Br)ccc1F | 2.19 | 2.59 | 1.18
37 | O=C(Nc1cc(F)c(F)c(F)c1)c1cc(S(=O)(=O)N[C@H]2CCOC2)c(F)cc1Br | 18.8 | 88.2 | 4.7
38 | Cc1cc(NC(=O)c2cc(NC(=S)NCc3ccc(C(F)(F)F)cc3)c(F)cc2Br)ccc1F | 16.1 | 3.22 | 0.2
39 | N#Cc1cc(NC(=O)c2cc(S(=O)(=O)N[C@H]3CCOC3)c(F)cc2Br)ccc1F | > 15.4 | > 100 | 6.49
40 | Cc1cc(NC(=O)c2cc(NC(=O)c3ccc(C(F)(F)F)cc3)c(F)cc2Br)ccc1F | 4.83 | 4.88 | 1.01
41 | Cc1cc(NC(=O)c2cc(NC(=O)NCc3ccc(C(F)(F)F)cc3)c(F)cc2Br)ccc1F | 35.6 | 11.8 | 0.33
42 | Cc1cc(NC(=O)c2cc(NC(=O)N3CCC(O)CC3)c(F)cc2Br)ccc1F | > 23 | > 100 | 4.34
43 | O=C(Nc1ccc(F)cc1)c1cc(S(=O)(=O)N[C@H]2CCOC2)c(F)cc1Br | > 41.8 | > 100 | 2.39
44 | O=C(Nc1cc(F)cc(F)c1)c1cc(S(=O)(=O)NC2CCCC2)c(F)cc1Br | > 123 | > 100 | 0.81
45 | Cc1cc(NC(=O)c2cc(NC(=S)NCc3ccc(B(O)O)cc3)c(F)cc2Br)ccc1F | 106 | 3.08 | 0.029
